Measured values reported in PubChem BioAssay (NCI).
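A five-concentration, 48-hour dose response in 96-well plates underlies each endpoint, interpolated linearly between surrounding concentrations. At the GI50, growth is halved. TGI denotes the concentration required for complete inhibition of growth.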

Experiments:
Assay in all cases: NCI anticancer screen, dose series, 48 h
DU-145 prostate = system: DU-145 prostate
MDA-MB-231 breast = system: MDA-MB-231 breast
HL-60(TB) leukemia = system: HL-60(TB) leukemia
ACHN renal = system: ACHN renal
NCI-H522 lung = system: NCI-H522 lung
KM12 colon = system: KM12 colon
PC-3 prostate = system: PC-3 prostate
HCT-15 colon = system: HCT-15 colon
HCC-2998 colon = system: HCC-2998 colon
SF-295 CNS = system: SF-295 CNS
MOLT-4 leukemia = system: MOLT-4 leukemia
OVCAR-3 ovarian = system: OVCAR-3 ovarian
SN12C renal = system: SN12C renal
HS 578T breast = system: HS 578T breast
SK-MEL-5 melanoma = system: SK-MEL-5 melanoma
SF-268 CNS = system: SF-268 CNS
OVCAR-5 ovarian = system: OVCAR-5 ovarian
SK-MEL-2 melanoma = system: SK-MEL-2 melanoma
NCI-H23 lung = system: NCI-H23 lung
TK-10 renal = system: TK-10 renal
HOP-92 NSCLC = system: HOP-92 NSCLC
SF-539 CNS = system: SF-539 CNS
SNB-75 CNS = system: SNB-75 CNS
OVCAR-8 ovarian = system: OVCAR-8 ovarian
NCI/ADR-RES ovarian = system: NCI/ADR-RES ovarian
U251 CNS = system: U251 CNS
RPMI-8226 leukemia = system: RPMI-8226 leukemia
UO-31 renal = system: UO-31 renal

For `NCCCCCCCCCCn1c2c(c3ccccc3c1=O)C(=O)c1ccccc1-2`, the TGI (DU-145 prostate) was 11.2 µM, the GI50 (MDA-MB-231 breast) was 5.22 µM and the TGI (MDA-MB-231 breast) was 18 µM. It also gave a GI50 (HL-60(TB) leukemia) of 1.77 µM, a TGI (HL-60(TB) leukemia) of 3.44 µM and a GI50 (ACHN renal) of 6 µM. The TGI (ACHN renal) was 18.2 µM, the GI50 (NCI-H522 lung) was 2.84 µM and the TGI (NCI-H522 lung) was 8.4 µM. It also gave a GI50 (KM12 colon) of 5.85 µM, a TGI (KM12 colon) of 21.9 µM and a GI50 (PC-3 prostate) of 2.16 µM. For the same molecule, the TGI (PC-3 prostate) was 4.54 µM, the GI50 (HCT-15 colon) was 4.51 µM and the TGI (HCT-15 colon) was 16.9 µM. It also gave a GI50 (HCC-2998 colon) of 6.14 µM, a TGI (HCC-2998 colon) of 19 µM and a GI50 (SF-295 CNS) of 6.48 µM. The TGI (SF-295 CNS) was 22 µM, the GI50 (MOLT-4 leukemia) was 1.81 µM and the TGI (MOLT-4 leukemia) was 3.32 µM. For the same molecule, the GI50 (OVCAR-3 ovarian) was 10.8 µM, the TGI (OVCAR-3 ovarian) was 27.3 µM and the GI50 (SN12C renal) was 3.32 µM. The TGI (SN12C renal) was 9.41 µM, the GI50 (HS 578T breast) was 13.6 µM and the TGI (HS 578T breast) was 36.4 µM. The GI50 (SK-MEL-5 melanoma) was 8.25 µM, the TGI (SK-MEL-5 melanoma) was 21.3 µM and the GI50 (SF-268 CNS) was 11.7 µM. It also gave a TGI (SF-268 CNS) of 50.3 µM, a GI50 (OVCAR-5 ovarian) of 4.52 µM and a TGI (OVCAR-5 ovarian) of 15.3 µM. The GI50 (SK-MEL-2 melanoma) was 2.04 µM, the TGI (SK-MEL-2 melanoma) was 4.41 µM and the GI50 (NCI-H23 lung) was 14.9 µM. For the same molecule, the TGI (NCI-H23 lung) was 32.6 µM, the GI50 (TK-10 renal) was 6.55 µM and the TGI (TK-10 renal) was 20.9 µM. The GI50 (HOP-92 NSCLC) was 2.74 µM, the TGI (HOP-92 NSCLC) was 7.49 µM and the GI50 (SF-539 CNS) was 1.83 µM. For the same molecule, the TGI (SF-539 CNS) was 3.52 µM, the GI50 (SNB-75 CNS) was 5.01 µM and the TGI (SNB-75 CNS) was 17.5 µM. The GI50 (OVCAR-8 ovarian) was 3.34 µM, the TGI (OVCAR-8 ovarian) was 56.9 µM and the GI50 (NCI/ADR-RES ovarian) was 10.9 µM. For the same molecule, the TGI (NCI/ADR-RES ovarian) was 28.5 µM, the GI50 (U251 CNS) was 10.1 µM and the TGI (U251 CNS) was 24.7 µM. The GI50 (RPMI-8226 leukemia) was 2.16 µM, the TGI (RPMI-8226 leukemia) was 4.47 µM and the GI50 (UO-31 renal) was 6.16 µM. The TGI (UO-31 renal) was 18.8 µM.
